Data: ChEMBL document CHEMBL2331139, “Discovery of BAF312 (Siponimod), a Potent and Selective S1P Receptor Modulator” (ACS Med Chem Lett, 2013)
Active and inactive are the calls of the source. The calls are words filed in the database; no cut-off is given here.

How the values were obtained:
[1] = molecular target: T1, Sphingosine 1-phosphate receptor 1 (Homo sapiens, UniProt P21453); assay: Agonist activity at human S1P1 receptor transfected in CHO cells incubated for 10 to 15 mins prior to GTPgamma35S addition measured after 120 mins by GTPgamma35S binding assay; assay type: functional, cell-based
[2] = molecular target: T2, Sphingosine 1-phosphate receptor 3 (Homo sapiens, UniProt Q99500); assay: Agonist activity at human S1P3 receptor transfected in CHO cells at 10 uM incubated for 10 to 15 mins prior to GTPgamma35S addition measured after 120 mins by GTPgamma35S binding assay relative to S1P; assay type: functional, cell-based
[3] = molecular target: T1, Sphingosine 1-phosphate receptor 1; assay: Agonist activity at human S1P1 receptor transfected in CHO cells at 10 uM incubated for 10 to 15 mins prior to GTPgamma35S addition measured after 120 mins by GTPgamma35S binding assay relative to S1P; assay type: functional, cell-based
[4] = molecular target: T2, Sphingosine 1-phosphate receptor 3; assay: Agonist activity at human S1P3 receptor transfected in CHO cells incubated for 10 to 15 mins prior to GTPgamma35S addition measured after 120 mins by GTPgamma35S binding assay; assay type: functional, cell-based
[5] = tested on: Rattus norvegicus; assay: Reduction in peripheral lymphocyte count in po dosed Lewis rat after 6 hrs; assay type: functional
[6] = molecular target: hERG (KCNH2) (Homo sapiens, UniProt Q12809); assay: Inhibition of human ERG channel at 25 uM
[7] = Tmax in Lewis rat at 1 mg/kg, po after 8 hrs; assay type: ADME, organism-based; parameters: dose 1 mg/kg, route oral; conditions: in vivo
[8] = tested on: Rattus norvegicus; assay: Reduction in peripheral lymphocyte count in Lewis rat at 1 mg/kg, po after 48 hrs; assay type: functional, organism-based; parameters: dose 1 mg/kg
[9] = tested on: Rattus norvegicus; assay: Reduction in peripheral lymphocyte count in Lewis rat at 1 mg/kg, po after 8 hrs; assay type: functional; parameters: scale not given: the % may be the effect or the level left
[10] = Terminal half life in rat; assay type: ADME, organism-based; conditions: in vivo, read-out: beta t1/2 (converted)
[11] = Terminal half life in monkey; assay type: ADME, organism-based, Macaca mulatta; conditions: rhesus monkey, in vivo; read-out: beta t1/2 (converted)
[12] = Volume of distribution at steady state in monkey; assay type: ADME, organism-based, Macaca mulatta; conditions: rhesus monkey, in vivo; read-out: Vdss
[13] = Volume of distribution at steady state in rat; assay type: ADME, organism-based; conditions: in vivo, read-out: Vdss
[14] = Clearance in monkey; assay type: ADME, organism-based, Macaca mulatta; conditions: rhesus monkey, in vivo
[15] = Clearance in rat; assay type: ADME, organism-based; conditions: in vivo
[16] = Oral bioavailability in monkey; assay type: ADME, organism-based, Macaca mulatta; conditions: rhesus monkey, in vivo
[17] = Oral bioavailability in rat; assay type: ADME, organism-based; conditions: in vivo
[18] = Drug absorption in rat; assay type: ADME, organism-based; conditions: in vivo, read-out: Fabs
[19] = species on record: Rattus norvegicus; assay: Drug excretion in rat; assay type: ADME, organism-based; conditions: in vivo
[20] = tested on: Caco-2; assay: Permeability across human Caco2 cells at 0.5 to 50 uM; assay type: ADME, cell-based; conditions: caco-2, 50 µM
[21] = Plasma protein binding in monkey; assay type: ADME, cell-free, Macaca mulatta; conditions: rhesus monkey, read-out: PPB
[22] = Plasma protein binding in human; assay type: ADME, cell-free; conditions: read-out: PPB
[23] = Plasma protein binding in dog; assay type: ADME, cell-free, Canis lupus familiaris; conditions: read-out: PPB
[24] = Plasma protein binding in rat; assay type: ADME, cell-free; conditions: read-out: PPB
[25] = tested on: Mus musculus; assay: Volume of distribution at steady state in po dosed mouse; assay type: ADME, organism-based; conditions: in vivo
[26] = Elimination half life in po dosed mouse; assay type: ADME, organism-based; conditions: in vivo, read-out: beta t1/2

T2 sequence (Q99500 whole entry): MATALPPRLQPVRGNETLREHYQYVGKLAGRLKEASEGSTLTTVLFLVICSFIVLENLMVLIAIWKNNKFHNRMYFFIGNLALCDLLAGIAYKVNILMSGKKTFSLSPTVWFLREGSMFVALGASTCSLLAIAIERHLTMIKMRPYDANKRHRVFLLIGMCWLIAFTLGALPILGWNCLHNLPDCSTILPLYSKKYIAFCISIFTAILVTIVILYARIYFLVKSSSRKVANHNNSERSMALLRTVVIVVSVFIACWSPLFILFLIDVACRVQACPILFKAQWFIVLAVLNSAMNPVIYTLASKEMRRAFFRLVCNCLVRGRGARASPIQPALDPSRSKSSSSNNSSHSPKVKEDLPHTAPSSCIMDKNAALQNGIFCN
T1 sequence (P21453 whole entry): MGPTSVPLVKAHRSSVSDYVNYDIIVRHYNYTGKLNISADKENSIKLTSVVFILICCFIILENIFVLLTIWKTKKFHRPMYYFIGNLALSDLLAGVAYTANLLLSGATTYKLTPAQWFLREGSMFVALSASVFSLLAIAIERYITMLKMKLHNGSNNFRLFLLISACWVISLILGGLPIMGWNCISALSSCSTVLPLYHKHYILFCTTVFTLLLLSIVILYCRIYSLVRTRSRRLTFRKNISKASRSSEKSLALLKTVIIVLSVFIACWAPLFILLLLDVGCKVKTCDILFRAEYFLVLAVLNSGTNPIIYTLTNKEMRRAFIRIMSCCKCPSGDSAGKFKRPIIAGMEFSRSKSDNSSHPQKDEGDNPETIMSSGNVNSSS
Chain of hERG (KCNH2) (Q12809 whole entry): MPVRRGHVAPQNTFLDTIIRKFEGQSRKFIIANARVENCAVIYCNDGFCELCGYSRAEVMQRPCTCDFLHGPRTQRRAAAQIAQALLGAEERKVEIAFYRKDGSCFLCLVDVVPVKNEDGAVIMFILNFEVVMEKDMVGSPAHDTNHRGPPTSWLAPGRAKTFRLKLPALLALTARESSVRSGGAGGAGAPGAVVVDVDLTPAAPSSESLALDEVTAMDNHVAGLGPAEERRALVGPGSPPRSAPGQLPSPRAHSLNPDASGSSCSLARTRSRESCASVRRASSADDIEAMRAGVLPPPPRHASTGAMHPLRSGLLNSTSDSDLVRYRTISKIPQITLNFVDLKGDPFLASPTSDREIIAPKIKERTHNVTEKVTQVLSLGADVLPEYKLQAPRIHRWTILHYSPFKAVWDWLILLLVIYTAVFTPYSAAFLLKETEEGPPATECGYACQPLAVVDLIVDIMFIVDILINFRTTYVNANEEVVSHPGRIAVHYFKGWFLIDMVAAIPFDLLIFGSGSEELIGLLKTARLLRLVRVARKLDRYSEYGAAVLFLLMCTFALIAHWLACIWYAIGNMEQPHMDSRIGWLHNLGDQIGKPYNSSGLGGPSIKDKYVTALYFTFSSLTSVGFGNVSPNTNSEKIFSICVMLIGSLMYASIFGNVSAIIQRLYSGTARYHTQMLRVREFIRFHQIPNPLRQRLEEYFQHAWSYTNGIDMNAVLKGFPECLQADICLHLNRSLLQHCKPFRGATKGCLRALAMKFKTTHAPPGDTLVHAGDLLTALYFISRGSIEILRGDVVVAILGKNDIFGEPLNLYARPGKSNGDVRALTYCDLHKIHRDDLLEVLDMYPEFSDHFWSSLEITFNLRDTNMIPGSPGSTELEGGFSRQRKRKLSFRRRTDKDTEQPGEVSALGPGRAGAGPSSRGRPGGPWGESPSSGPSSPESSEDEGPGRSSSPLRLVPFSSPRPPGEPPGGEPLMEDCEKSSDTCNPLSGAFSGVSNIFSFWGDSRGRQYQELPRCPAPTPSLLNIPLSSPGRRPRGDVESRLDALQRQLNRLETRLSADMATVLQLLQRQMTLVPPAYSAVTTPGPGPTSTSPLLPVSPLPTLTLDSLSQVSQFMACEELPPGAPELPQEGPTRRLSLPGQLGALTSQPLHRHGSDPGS

Row | EC50 [1] [nM] | Emax [2] [%] | Emax [3] | EC50 [4] [nM] | SMILES | also measured
1 | 16 | – | – | – | C/C(=N\OCc1ccc(-c2ccc(F)c(F)c2)c(C(F)(F)F)c1)c1ccc(CNCCC(=O)O)cc1 | –
2 | 1.4 | 53 | 92% | 2600 | C/C(=N\OCc1ccc(C2CCCCC2)c(C(F)(F)F)c1)c1ccc(CNCCC(=O)O)cn1 | –
3 | 10000 | – | – | – | C/C(=N\OCc1ccc(-c2ccc(C(F)(F)F)cc2)cc1)c1ccc(CNCCC(=O)O)cc1 | –
4 | 640 | – | – | – | C/C(=N\OCc1ccc(-c2ccc(C)cc2)cc1)c1ccc(CNCCC(=O)O)cc1 | –
5 | 94 | – | – | – | C/C(=N\OCc1ccc(-c2ccc(C)cc2)c(C(F)(F)F)c1)c1ccc(CNCCC(=O)O)cc1 | –
6 | 1500 | – | – | – | COc1ccc(-c2ccc(CO/N=C(\C)c3ccc(CNCCC(=O)O)cc3)cc2)cc1 | –
7 | 120 | – | – | – | C/C(=N\OCc1ccc(-c2ccccc2)cc1F)c1ccc(CNCCC(=O)O)cc1 | –
8 | 0.4 | 63 | 98% | 1300 | C/C(=N\OCc1ccc(C2CCCCC2)c(C(F)(F)F)c1)c1ccc(CNCCC(=O)O)c(C2CC2)c1 | –
9 | 1400 | – | – | – | COc1ccccc1-c1ccc(CO/N=C(\C)c2ccc(CNCCC(=O)O)cc2)cc1 | –
10 | 0.6 | 50 | 106% | 1900 | C/C(=N\OCc1ccc(C2CCCCC2)c(C(F)(F)F)c1)c1ccc(CNCCC(=O)O)c(Cl)c1 | –
11 | 10000 | – | inactive | – | C/C(=N\OCc1ccc(-c2ccccc2)cc1C(F)(F)F)c1ccc(CNCCC(=O)O)cc1 | –
12 | 9 | – | – | – | C/C(=N\OCc1ccc(-c2ccccc2)c(C(F)(F)F)c1)c1ccc(CNCCC(=O)O)cc1 | –
13 | 1700 | – | – | – | C/C(=N\OCc1ccc(-c2ccccc2C(F)(F)F)cc1)c1ccc(CNCCC(=O)O)cc1 | –
14 | 0.7 | 43 | 92% | 7200 | CCc1cc(/C(C)=N/OCc2ccc(C3CCCCC3)c(C(F)(F)F)c2)ccc1CNCCC(=O)O | –
15 | 15 | – | – | 3000 | C/C(=N\OCc1ccc(-c2ccco2)c(C(F)(F)F)c1)c1ccc(CNCCC(=O)O)cc1 | –
16 | 61 | – | – | – | C/C(=N\OCc1ccc(-c2ccccc2)c(F)c1)c1ccc(CNCCC(=O)O)cc1 | –

Row | EC50 [1] [nM] | Emax [2] [%] | Emax [3] | EC50 [4] [nM] | SMILES | also measured
17 | 0.3 | – | – | 1500 | C/C(=N\OCc1ccc(C2CCCCC2)c(C(F)(F)F)c1)c1ccc(CNCCC(=O)O)cc1 | –
18 | 300 | – | – | – | C/C(=N\OCc1ccc(-c2ccccc2)cc1)c1ccc(CNCCC(=O)O)cc1 | –
19 | 210 | – | – | – | C/C(=N\OCc1ccc(-c2ccc(F)cc2)cc1)c1ccc(CNCCC(=O)O)cc1 | –
20 | 0.3 | 61 | 105% | 2200 | C/C(=N\OCc1ccc(C2CCCCC2)c(C(F)(F)F)c1)c1ccc(CNCCC(=O)O)c(F)c1 | –
21 | 2.6 | 44 | 86% | 4300 | C/C(=N\OCc1ccc(C2CCCCC2)c(C(F)(F)F)c1)c1ccc(CNCCC(=O)O)nc1 | –
22 | 2.2 | 79 | 104% | 4000 | C/C(=N\OCc1ccc(C2CCCCC2)c(C(F)(F)F)c1)c1ccc(CNCCC(=O)O)s1 | –
23 | 18 | – | – | 5900 | C/C(=N\OCc1ccc(-c2cccs2)c(C(F)(F)F)c1)c1ccc(CNCCC(=O)O)cc1 | –
24 | 17 | 62 | 100% | 2500 | C/C(=N\OCc1ccc(C2CCCCC2)c(C(F)(F)F)c1)c1ccc(CNCCC(=O)O)o1 | –
25 | 2 | 159 | 94% | 5900 | C/C(=N\OCc1ccc(C2CCCCC2)c(C(F)(F)F)c1)c1ccc(CNCCC(=O)O)c(C)c1 | –
26 | 1.6 | 127 | 80% | 3200 | C/C(=N\OCc1ccc(C2CCCCC2)c(C(F)(F)F)c1)c1ccc(CN2CC(C(=O)O)C2)c(C)c1 | –
27 | 8 | – | – | – | C/C(=N\OCc1ccc(-c2ccccc2F)c(C(F)(F)F)c1)c1ccc(CNCCC(=O)O)cc1 | –
28 | – | 55 | 91% | 5000 | CCc1cc(/C(C)=N/OCc2ccc(C3CCCCC3)c(C(F)(F)F)c2)ccc1CN1CC(C(=O)O)C1 [SIPONIMOD] | ED50 [5]: 0.14 mg/kg; inhibition at 25 µM [6]: < 10%; Tmax [7]: 8 h; Activity [8]: inactive; Activity [9]: 88%; half-life [10]: 6 h; half-life [11]: 19 h; Vd [12]: 2.12 L/kg; Vd [13]: 2.15 L/kg; clearance [14]: 1.63 mL/min/kg; clearance [15]: 6 mL/min/kg; bioavailability [16]: 71%; bioavailability [17]: 50%; Fa [18]: 58%; Drug excretion [19]: Not Active; permeability [20]: permeable; fraction unbound [21]: < 0.001; fraction unbound [22]: < 0.001; fraction unbound [23]: < 0.001; fraction unbound [24]: < 0.001
29 | 11 | – | – | – | C/C(=N\OCc1ccc(-c2ccc(F)cc2)c(C(F)(F)F)c1)c1ccc(CNCCC(=O)O)cc1 | –
30 | 0.4 | 65 | 85% | 1100 | C/C(=N\OCc1ccc(C2CCCCC2)c(C(F)(F)F)c1)c1ccc(CNCCC(=O)O)c(Br)c1 | –
31 | – | – | – | – | C/C(=N\OCc1ccc(-c2ccccc2)cc1)c1ccc(CCC(N)(CO)CO)cc1 | Vdss [25]: 36.9 L/kg; half-life [26]: > 30 h
32 | 0.6 | – | – | 1600 | C/C(=N\OCc1ccc(C2CCCC2)c(C(F)(F)F)c1)c1ccc(CNCCC(=O)O)cc1 | –
